Data taken from patent publication US10076519B2 (CYTOKINETICS, INC., priority 2010, dated 2018).

Test system: rabbit skeletal myofibrils (fast skeletal myofibrils)
Experiment: Activation of fast skeletal myofibrils (PUMA assay, PK/LDH-coupled ATPase at pCa25)
Type: biochemical
Conditions: AC1.4 determined according to the procedure of Example 39; reported as class symbols
Summary of the method: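 Detergent-washed rabbit psoas myofibrils (~90% fast fibres, calcium-regulated) assayed at calcium giving 25% of maximal ATPase rate (pCa25). ADP turnover coupled via pyruvate kinase/lactate dehydrogenase to NADH oxidation, read at 340 nm. Buffer 12 mM PIPES, 2 mM MgCl2, 1 mM DTT, pH 6.8; AC1.4 values derived.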

Compound | Mean AC1.4
Fc1cccnc1C1(CNc2ccc(-c3ccc4[nH]ncc4c3)nn2)CNC1 [(6-(1H-indazol-5-yl)pyridazin-3-yl){[3-(3-fluoro(2-pyridyl))azetidin-3-yl]methyl}amine] | D (D=>20 uM)
NC(=O)c1cccc(-c2ccc(NCCc3cccnc3)nn2)c1 [3-{6-[(2-(3-pyridyl)ethyl)amino]pyridazin-3-yl}benzamide] | D (D=>20 uM)
COC(=O)NCc1ccc(NCC(C)(C)c2ccc(F)cc2)nn1 [N-[(6-{[2-(4-fluorophenyl)-2-methylpropyl]amino}pyridazin-3-yl)methyl]methoxycarboxamide] | D (D=>20 uM)
CC(C)(CNc1ccc(-c2ccc(C(N)=O)cc2)nn1)c1ccc(F)cc1 [4-(6-{[2-(4-fluorophenyl)-2-methylpropyl]amino}pyridazin-3-yl)benzamide] | B (B=1-10 uM)
CC(C)(CNc1ccc(-c2ccc3nc(N)[nH]c(=O)c3c2)nn1)c1ccc(F)cc1 | A (A=<1 uM)
CC(C)(CNc1ccc(-c2cccc(C(=O)N3CCNCC3)c2)nn1)c1ccc(F)cc1 [3-(6-{[2-(4-fluorophenyl)-2-methylpropyl]amino}pyridazin-3-yl)phenyl piperazinyl ketone] | B (B=1-10 uM)
CC(C)(CNc1ccc(-c2ccc3[nH]nc(I)c3c2)nn1)c1ccc(F)cc1 [[2-(4-fluorophenyl)-2-methylpropyl][6-(3-iodo(1H-indazol-5-yl))pyridazin-3-yl]amine] | B (B=1-10 uM)
CS(=O)(=O)Nc1n[nH]c2ccc(-c3ccc(NCC4(c5ncccc5F)CCC4)nn3)cc12 | A (A=<1 uM)
NC(=O)c1cccc(-c2ccc(NCCc3ccc(F)cc3)nn2)c1 | D (D=>20 uM)
COc1ccnc(C2(CNc3ccc(-c4cc(C(N)=O)ccc4F)nn3)CCC2)c1 | B (B=1-10 uM)
CC(C)(CNc1ccc(-c2cncc(C(N)=O)c2)nn1)c1ccccc1Cl [5-(6-{[2-(2-chlorophenyl)-2-methylpropyl]amino}pyridazin-3-yl)pyridine-3-carboxamide] | B (B=1-10 uM)

Same assay, conditions: median AC1.4 class, procedure of Example 39

Compound | Mean AC1.4
O=C(NC1CCNC1=O)c1cnc(-c2ccc(NCC3(c4ncccc4F)CCC3)nn2)s1 (stereo not shown) [{2-[6-({[(3-fluoro(2-pyridyl))cyclobutyl]methyl}ami-no)pyridazin-3-yl](1,3-thiazol-5-yl)}-N-(2-oxopyrrolidin-3-yl)carboxamide] | B (B=1-10 uM)
O=C1NC[C@@H](C(=O)NCc2cnc(-c3ccc(NCC4(c5ncccc5F)CCC4)nn3)s2)N1 [((4S)-2-oxoimidazolidin-4-yl)-N-({2-[6-({[(3-fluoro(2-pyridyl))cyclobutyl]methyl}ami-no)pyridazin-3-yl](1,3-thiazol-5-yl)}methyl)carboxamide] | A (A=<1 uM)
O=C1Cc2ccc(-c3ccc(NCC4(c5ncccc5F)CCC4)nn3)cc2N1 | B (B=1-10 uM)
COc1ccc(-c2ccc(NCC3(c4ncccc4F)CCC3)nn2)cc1C(N)=O | B (B=1-10 uM)
CC(C)n1[nH]c(=O)c2cc(-c3ccc(NCC4(c5ncccc5F)CCC4)nn3)ccc21 | C (C=10-20 uM)
CC(C)(Nc1ccc(-c2cc(C(N)=O)ccc2F)nn1)c1ncccc1F [4-fluoro-3-(6-{[1-(3-fluoro(2-pyridyl))-isopropyl]amino}pyridazin-3-yl)benzamide] | B (B=1-10 uM)

Same assay, conditions: median AC1.4 reported as class; procedure of Example 39

Compound | Mean AC1.4
Cc1cc(NCC2(c3ncccc3F)CCC2)nnc1-c1cc(C(N)=O)ccc1F [4-fluoro-3-[6-({[(3-fluoro(2-pyridyl))cyclobutyl]methyl}ami-no)-4-methylpyridazin-3-yl]benzamide] | C (C=10-20 uM)
CNC(=O)Cc1cnc(-c2ccc(NC[C@]3(c4ncccc4Cl)C[C@H](F)C3)nn2)s1 [2-{2-[6-({[1-(3-chloro(2-pyridyl))-3-fluorocyclobutyl]methyl}amino)pyr-idazin-3-yl](1,3-thiazol-5-yl)}-N-methylacetamide] | B (B=1-10 uM)
